Values joined by “and” are separate entries in the source; they are usually repeats but may differ in a detail not shown here. Identical values can stand only once.
Experiments:
[1] = test system: S. aureus ATCC 29213; assay: S. aureus neutropenic murine thigh infection model; type: in vivo, mouse; conditions: S. aureus ATCC 29213, daily dose, 300 µg/mL ceftriaxone
Experimental: The S. aureus neutropenic murine thigh infection model was performed in accordance with the Guide for Care and Use of Laboratory Animals[75]. Animal rooms were maintained at a temperature range of 20–24 °C and humidity between 30% and 70%, with 12 h light/dark cycles. Female ICR mice (BioLASCO Taiwan Co., Ltd.) were rendered neutropenic via IP injection of cyclophosphamide four days before infection (150 mg/kg) and again one day before infection (100 mg/kg). Animals were anaesthetised with isoflurane (3–5%), then inoculated intramuscularly with S. aureus ATCC 29213 (~1 × 10^5 CFU/mouse). […] Animals were sacrificed via CO2 asphyxiation at either 2 h (baseline), 26 and/or 50 h post-infection. Thigh tissues were harvested and homogenised in 3 mL sterile PBS (pH 7.4). Bacterial burdens were determined by performing 10-fold serial dilutions and plating on nutrient agar plates.

[2] = test system: N. gonorrhoeae; assay: N. gonorrhoeae murine vaginal infection model, efficacy; type: in vivo, mouse
Experimental: The N. gonorrhoeae female mouse vaginal model[45] was performed in accordance with the Guide for Care and Use of Laboratory Animals[75]. Animal rooms were maintained at a temperature range of 20–24 °C and humidity between 30% and 70%, with 12 h light/dark cycles. Ovariectomized BALB/c female mice (5–6 weeks, BioLASCO Taiwan Co., Ltd.) were treated with estradiol (0.23 mg/mouse) two days before infection and on the day of infection. Ovariectomized mice were used to avoid staging mice before treating them with estradiol. Beginning two days prior to infection and maintained until the end of the study, animals were treated twice daily with streptomycin (1.2 mg/mouse) and vancomycin (0.6 mg/mouse) each via intraperitoneal (IP) injection and received trimethoprim sulfate in the drinking water (0.4 mg/mL) to control vaginal microflora. Animals were anesthetised with pentobarbital (80 mg/kg), the vagina was rinsed with 50 mM HEPES (pH 7.4), and then inoculated with N. gonorrhoeae in pre-warmed PBS (0.02 mL/mouse containing ~1 × 10^5 CFU).
Control groups received either a single IP injection of ceftriaxone or 5% dextrose (vehicle) twice daily. Animals were sacrificed via CO2 asphyxiation at either 2 h (baseline), 26 and/or 50 h post-infection. Vaginal lavage was performed twice with 200 µL GC broth containing 0.05% saponin to recover bacteria. Bacterial burden in the lavage fluids was determined by performing 10-fold serial dilutions and plating on chocolate agar plates. Four strains were assessed using the model; ATCC 700825 is naturally streptomycin-resistant, whereas AR Bank0179-15, AR Bank0181-17 and WHO X-07 are derivatives of AR Bank0179, AR Bank0181 and WHO X, respectively, that were engineered for streptomycin resistance for use in the model.

[3] = Data 4, N. gonorrhoeae WHO X-07, ovariectomized BALB/c, 5 mg/kg IP, QD, 24h, individual animals, 5 mg/kg
[4] = Data 4, N. gonorrhoeae WHO X-07, ovariectomized BALB/c, 333.33 mg/kg IP, TID, 24h, individual animals
[5] = Data 4, N. gonorrhoeae WHO X-07, ovariectomized BALB/c, 333.33 mg/kg IP, TID, 48h, individual animals, 333.33 mg/kg
[6] = N. gonorrhoeae AR Bank0179-15, vaginal lavage, individual mice, Ceftriaxone 0.5 mg/kg IP, QD, 24h
[7] = N. gonorrhoeae AR Bank0179-15, vaginal lavage, individual mice, Ceftriaxone 5 mg/kg IP, QD, 24h
[8] = N. gonorrhoeae AR Bank0179-15, vaginal lavage, individual mice, Ceftriaxone 5 mg/kg IP, QD, 48h
[9] = N. gonorrhoeae AR Bank0181-17, vaginal lavage, individual mice, Ceftriaxone 0.5 mg/kg IP, QD, 24h
[10] = N. gonorrhoeae AR Bank0181-17, vaginal lavage, individual mice, Ceftriaxone 5 mg/kg IP, QD, 24h
[11] = N. gonorrhoeae AR Bank0181-17, vaginal lavage, individual mice, Ceftriaxone 5 mg/kg IP, QD, 48h
[12] = N. gonorrhoeae ATCC 700825, vaginal lavage, individual mice, Ceftriaxone 1 mg/kg IP, QD, 24h
[13] = N. gonorrhoeae ATCC 700825, vaginal lavage, individual mice, Ceftriaxone 5 mg/kg IP, QD, 24h
[14] = N. gonorrhoeae ATCC 700825, vaginal lavage, individual mice, Ceftriaxone 5 mg/kg IP, QD, 48h

## CO/N=C(\C(=O)N[C@@H]1C(=O)N2C(C(=O)O)=C(CSc3nc(=O)c(=O)[nH]n3C)CS[C@H]12)c1csc(N)n1 [Ceftriaxone, reference compound]
[1]; 24h
  Mean Diff. 0h vs. treatment, log10 CFU: 1.71
[1]; 48h
  Mean Diff. 0h vs. treatment, log10 CFU: 2.684
[2]; AR Bank0179-15, 0.5 µg/mL ceftriaxone, 24h
  Mean Diff. 0h vs. treatment, log10 CFU: 3.018
[2]; AR Bank0179-15, 5 µg/mL ceftriaxone, 24h
  Mean Diff. 0h vs. treatment, log10 CFU: 3.186
[2]; AR Bank0179-15, 5 µg/mL ceftriaxone, 48h
  Mean Diff. 0h vs. treatment, log10 CFU: 3.09
[2]; AR Bank0181-17, 0.5 µg/mL ceftriaxone, 24h
  Mean Diff. 0h vs. treatment, log10 CFU: 0.924
[2]; AR Bank0181-17, 5 µg/mL ceftriaxone, 24h
  Mean Diff. 0h vs. treatment, log10 CFU: 3.56
[2]; AR Bank0181-17, 5 µg/mL ceftriaxone, 48h
  Mean Diff. 0h vs. treatment, log10 CFU: 3.56
[2]; ATCC 700825, AR Bank0179-15, AR Bank0181-17
  efficacy against ceftriaxone-susceptible strains: effective
[2]; ATCC 700825, 1 µg/mL ceftriaxone, 24h
  Mean Diff. 0h vs. treatment, log10 CFU: 2.882
[2]; ATCC 700825, 5 µg/mL ceftriaxone, 24h
  Mean Diff. 0h vs. treatment, log10 CFU: 3.022
[2]; ATCC 700825, 5 µg/mL ceftriaxone, 48h
  Mean Diff. 0h vs. treatment, log10 CFU: 3.082
[2]; [3]
  CFU/mL lavage fluid: 1450000 CFU/mL lavage fluid and 400000 CFU/mL lavage fluid and 1290000 CFU/mL lavage fluid and 480000 CFU/mL lavage fluid and 620000 CFU/mL lavage fluid
  Log10(CFU/mL lavage fluid): 6.16 Log10(CFU/mL lavage fluid) and 5.60 Log10(CFU/mL lavage fluid) and 6.11 Log10(CFU/mL lavage fluid) and 5.68 Log10(CFU/mL lavage fluid) and 5.79 Log10(CFU/mL lavage fluid)
[2]; [4]
  CFU/mL lavage fluid: <5.00E+00 CFU/mL lavage fluid
  Log10(CFU/mL lavage fluid): <0.70 Log10(CFU/mL lavage fluid)
[2]; [5]
  CFU/mL lavage fluid: 35 CFU/mL lavage fluid and <5.00E+00 CFU/mL lavage fluid
  Log10(CFU/mL lavage fluid): 1.54 Log10(CFU/mL lavage fluid) and <0.70 Log10(CFU/mL lavage fluid)
[2]; [6]
  CFU/mL lavage fluid: 5 CFU/mL and <5 CFU/mL and 35 CFU/mL
  Log10(CFU/mL lavage fluid): 0.7 Log10(CFU/mL lavage fluid) and <0.70 Log10(CFU/mL lavage fluid) and 1.54 Log10(CFU/mL lavage fluid)
[2]; [7]
  CFU/mL lavage fluid: <5 CFU/mL
  Log10(CFU/mL lavage fluid): <0.70 Log10(CFU/mL lavage fluid)
[2]; [8]
  CFU/mL lavage fluid: 5 CFU/mL and <5 CFU/mL and 15 CFU/mL
  Log10(CFU/mL lavage fluid): 0.7 Log10(CFU/mL lavage fluid) and <0.70 Log10(CFU/mL lavage fluid) and 1.18 Log10(CFU/mL lavage fluid)
[2]; [9]
  CFU/mL lavage fluid: 255 CFU/mL and 195 CFU/mL and 3900 CFU/mL and 37000 CFU/mL and 6600 CFU/mL
  Log10(CFU/mL lavage fluid): 2.41 Log10(CFU/mL lavage fluid) and 2.29 Log10(CFU/mL lavage fluid) and 3.59 Log10(CFU/mL lavage fluid) and 4.57 Log10(CFU/mL lavage fluid) and 3.82 Log10(CFU/mL lavage fluid)
[2]; [10]
  CFU/mL lavage fluid: <5 CFU/mL
  Log10(CFU/mL lavage fluid): <0.70 Log10(CFU/mL lavage fluid)
[2]; [11]
  CFU/mL lavage fluid: <5 CFU/mL
  Log10(CFU/mL lavage fluid): <0.70 Log10(CFU/mL lavage fluid)
[2]; [12]
  CFU/mL lavage fluid: 50 CFU/mL and 5 CFU/mL and <5 CFU/mL
  Log10(CFU/mL lavage fluid): 1.7 Log10(CFU/mL lavage fluid) and 0.7 Log10(CFU/mL lavage fluid) and <0.70 Log10(CFU/mL lavage fluid)
[2]; [13]
  CFU/mL lavage fluid: <5 CFU/mL and 10 CFU/mL
  Log10(CFU/mL lavage fluid): <0.70 Log10(CFU/mL lavage fluid) and 1 Log10(CFU/mL lavage fluid)
[2]; [14]
  CFU/mL lavage fluid: <5 CFU/mL
  Log10(CFU/mL lavage fluid): <0.70 Log10(CFU/mL lavage fluid)
[2]; WHO X-07, 5 µg/mL ceftriaxone, 24h
  Mean Diff. 0h vs. treatment, log10 CFU: -1.846
[2]; WHO X-07, 1000 µg/mL ceftriaxone, 24h
  Mean Diff. 0h vs. treatment, log10 CFU: 3.322
[2]; WHO X-07, 1000 µg/mL ceftriaxone, 48h
  Mean Diff. 0h vs. treatment, log10 CFU: 3.154
[2]; at doses equivalent to those effective against susceptible strains
  efficacy against ceftriaxone-resistant strain WHO X-07: ineffective
[2]; dose with simulated fT > MIC of 2 h
  increase in log10CFU/mL at 24 h: 1.9 log10CFU/mL
[2]; doses with simulated fT > MIC of 12 to 18 h
  reduction in log10CFU/mL at 24 h: 2.0 log10CFU/mL
[2]; doses with simulated fT > MIC of >24 h
  reduction in log10CFU/mL at 24 h: 3.3 log10CFU/mL
[2]; doses with simulated fT > MIC of ≥22 to 24 h
  reduction in log10CFU/mL at 24 h: 2.9 log10CFU/mL

Reference: PMC12446476 (Nature Communications, 2025)
